Source: US8822447B2, “Indazole compounds useful as ketohexokinase inhibitors” (Janssen Pharmaceutica NV, priority 2010, dated 2014)

Molecular target: KHK (Homo sapiens (Human), UniProt P50053)
Assay: In Vitro KHK Enzyme Assay (HTMS);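 also: primary screen measuring inhibition of KHK-catalysed conversion of D-fructose into fructose 1-phosphate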
Format: biochemical
Conditions: 200 μM fructose, 100 μM ATP, 2 nM KHK, 60 min at 25° C.; Fructose-1-P detected by high throughput mass spectrometry
Experimental: An enzymatic assay was developed to measure KHK-mediated conversion of D-fructose to Fructose-1-P (F-1-P) using High Throughput Mass Spectroscopy (HTMS) as a means of product detection. This assay served as a primary screen to evaluate the ability to inhibit KHK enzyme activity and it has been adapted to high throughput mass spectrometry (HTMS, BioTrove RapidFire™) format for higher throughput.
The compounds to be tested were dosed in 12-points concentration from 511 μM to 0.5 μM. […] The assay was carried out in 384-well plate format.

Sequence of KHK (P50053 whole entry): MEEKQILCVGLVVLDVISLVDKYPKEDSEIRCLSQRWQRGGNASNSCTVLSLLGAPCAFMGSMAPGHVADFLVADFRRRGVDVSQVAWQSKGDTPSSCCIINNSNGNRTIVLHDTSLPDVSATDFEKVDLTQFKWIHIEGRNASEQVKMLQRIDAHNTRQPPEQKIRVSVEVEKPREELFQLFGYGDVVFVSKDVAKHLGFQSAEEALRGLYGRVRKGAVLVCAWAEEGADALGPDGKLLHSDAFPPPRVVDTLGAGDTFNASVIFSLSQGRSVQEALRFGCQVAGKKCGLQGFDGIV

IC50 [µM]	SMILES
9.83	CSc1nn(-c2ccc([N+](=O)[O-])cc2)c2cc(C(=O)NC3CCNCC3)ccc12 [Compound 110, 3-Methylsulfanyl-1-(4-nitro-phenyl)-1H-indazole-6-carboxylic acid piperidin-4-ylamide]
2.61	CSc1nn(-c2ccc(N)cc2)c2cc(C(=O)NC3CCNCC3)ccc12 [Compound 111, 1-(4-Amino-phenyl)-3-methylsulfanyl-1H-indazole-6-carboxylic acid piperidin-4-ylamide]
0.42	CSc1nn(-c2ccccc2)c2cc(NCC3CCNCC3)ccc12 [Compound 112, (3-Methylsulfanyl-1-phenyl-1H-indazol-6-yl)-piperidin-4-ylmethyl-amine]
> 51	CSc1nn(-c2ccc(N)cc2)c2cc(CN3CCNCC3)ccc12 [Compound 115, 4-(3-Methylsulfanyl-6-piperazin-1-ylmethyl-indazol-1-yl)-phenylamine]
0.38	CSc1nn(-c2cccc(C)c2)c2cc(N3CCN(C4CCNCC4)CC3)ccc12 [Compound 119, 3-Methylsulfanyl-6-(4-piperidin-4-yl-piperazin-1-yl)-1-m-tolyl-1H-indazole]
0.71	CSc1nn(-c2ccccc2)c2cc(OC3CCNCC3)ccc12 [Compound 121, 3-Methylsulfanyl-1-phenyl-6-(piperidin-4-yloxy)-1H-indazole]
0.83	COc1ccc(-n2nc(SC)c3ccc(N4CCNCC4)cc32)cc1 [Compound 122, 1-(4-Methoxy-phenyl)-3-methylsulfanyl-6-piperazin-1-yl-1H-indazole]
4.22	CSc1nn(-c2cc(F)cc(F)c2)c2cc(N3CCN(C4CCNCC4)CC3)ccc12 [Compound 126, 1-(3,5-Difluoro-phenyl)-3-methylsulfanyl-6-(4-piperidin-4-yl-piperazin-1-yl)-1H-indazole]
0.92	CSc1nn(-c2ccc(Br)cc2)c2cc(OCC3CCNCC3)ccc12 [Compound 128, 1-(4-Bromo-phenyl)-3-methylsulfanyl-6-(piperidin-4-ylmethoxy)-1H-indazole]
44.9	CSc1nn(-c2ccc([N+](=O)[O-])cc2)c2cc(CN3CCNCC3)ccc12 [Compound 130, 3-Methylsulfanyl-1-(4-nitro-phenyl)-6-piperazin-1-ylmethyl-1H-indazole]
0.68	CSc1nn(-c2ccccc2)c2cc(NC(=O)CN3CCNCC3)ccc12 [Compound 131, N-(3-Methylsulfanyl-1-phenyl-1H-indazol-6-yl)-2-piperazin-1-yl-acetamide]
0.38	CSc1nn(-c2ccccc2)c2cc(NC(=O)CCN3CCNCC3)ccc12 [Compound 132, N-(3-Methylsulfanyl-1-phenyl-1H-indazol-6-yl)-3-piperazin-1-yl-propionamide]
> 51	CSc1nn(-c2ccc([N+](=O)[O-])cc2)c2cc(C(=O)N3CCNCC3)ccc12 [Compound 133, [3-Methylsulfanyl-1-(4-nitro-phenyl)-1H-indazol-6-yl]-piperazin-1-yl-methanone]
1.65	CSc1nn(-c2ccc(F)cc2)c2cc(N3CCN(C4CCNCC4)CC3)ccc12 [Compound 135, 1-(4-Fluoro-phenyl)-3-methylsulfanyl-6-(4-piperidin-4-yl-piperazin-1-yl)-1H-indazole]
> 2	CSc1nn(-c2ccccc2)c2cc(C(O)C3CCNCC3)ccc12 (centres unmarked) [Compound 136, (3-Methylsulfanyl-1-phenyl-1H-indazol-6-yl)-piperidin-4-yl-methanol]
> 2	CSc1nn(-c2ccccc2)c2cc(C(O)c3ccncc3)ccc12 (centres unmarked) [Compound 137, (3-Methylsulfanyl-1-phenyl-1H-indazol-6-yl)-pyridin-4-yl-methanol]
0.23	CSc1nn(-c2ccccc2)c2cc(C=CC3CCNCC3)ccc12 [Compound 141, 3-Methylsulfanyl-1-phenyl-6-(2-piperidin-4-yl-vinyl)-1H-indazole]
0.67	CSc1nn(-c2ccccc2)c2cc(C(=O)C3CCNCC3)ccc12 [Compound 142, (3-Methylsulfanyl-1-phenyl-1H-indazol-6-yl)-piperidin-4-yl-methanone]
> 10	CSc1nn(-c2ccc([N+](=O)[O-])cc2)c2cc(C3=CCN(C(=O)CN)CC3)ccc12 [Compound 144, 2-Amino-1-{4-[3-methylsulfanyl-1-(4-nitro-phenyl)-1H-indazol-6-yl]-3,6-dihydro-2H-pyridin-1-yl}-ethanone]

IC50 [µM]	SMILES
0.48	CSc1nn(-c2ccccc2)c2cc(C3=CCN(C(=O)CCN)CC3)ccc12 [Compound 149, 3-Amino-1-[4-(3-methylsulfanyl-1-phenyl-1H-indazol-6-yl)-3,6-dihydro-2H-pyridin-1-yl]-propan-1-one]
> 10	CSc1nn(-c2ccccc2)c2cc(C=Cn3cncn3)ccc12 [Compound 152, 3-Methylsulfanyl-1-phenyl-6-(2-[1,2,4]triazol-1-yl-vinyl)-1H-indazole]
0.4	CSc1nn(-c2ccccc2)c2cc(C=CC3CCNCC3)ccc12 [Compound 153, 3-Methylsulfanyl-1-phenyl-6-(2-piperidin-4-yl-vinyl)-1H-indazole]
> 10	CSc1nn(-c2ccccc2)c2cc(C=Cc3ccncc3)ccc12 [Compound 154, 3-Methylsulfanyl-1-phenyl-6-(2-pyridin-4-yl-vinyl)-1H-indazole]
> 10	CSc1nn(-c2ccccc2)c2cc(C=Cc3ccccn3)ccc12 [Compound 155, 3-Methylsulfanyl-1-phenyl-6-(2-pyridin-2-yl-vinyl)-1H-indazole]
0.3	CSc1nn(-c2ccccc2)c2cc(NC(=O)C3(N)CCNCC3)ccc12 [Compound 157, 4-Amino-piperidine-4-carboxylic acid (3-methylsulfanyl-1-phenyl-1H-indazol-6-yl)-amide]
0.7	CSc1nn(-c2ccccc2)c2cc(NC(=O)C3(C)CCNCC3)ccc12 [Compound 158, 4-Methyl-piperidine-4-carboxylic acid (3-methylsulfanyl-1-phenyl-1H-indazol-6-yl)-amide]
1	CSc1nn(-c2ccccc2)c2cc(C(=O)CC3CCNCC3)ccc12 [Compound 160, 1-(3-Methylsulfanyl-1-phenyl-1H-indazol-6-yl)-2-piperidin-4-yl-ethanone]
6.62	CSc1nn(-c2ccccc2)c2cc(C(=O)CC3CCCNC3)ccc12 (centres unmarked) [Compound 161, 1-(3-Methylsulfanyl-1-phenyl-1H-indazol-6-yl)-2-piperidin-3-yl-ethanone]
8.28	CSc1nn(-c2ccccc2)c2cc(C(=O)CC3CCCN3)ccc12 (centres unmarked) [Compound 163, 1-(3-Methylsulfanyl-1-phenyl-1H-indazol-6-yl)-2-pyrrolidin-2-yl-ethanone]
> 10	CSc1nn(-c2ccccc2)c2cc(-c3ccncc3)ccc12 [Compound 164, 3-Methylsulfanyl-1-phenyl-6-pyridin-4-yl-1H-indazole]
0.89	CSc1nn(-c2ccccc2)c2cc(NCCN3CCNCC3)ccc12 [Compound 165, (3-Methylsulfanyl-1-phenyl-1H-indazol-6-yl)-(2-piperazin-1-yl-ethyl)-amine]
0.6	CSc1nn(-c2ccccc2)c2cc(NCCC3CCNCC3)ccc12 [Compound 166, (3-Methylsulfanyl-1-phenyl-1H-indazol-6-yl)-(2-piperidin-4-yl-ethyl)-amine]
0.66	CSc1nn(-c2ccccc2)c2cc(NC(=O)C3(F)CCNCC3)ccc12 [Compound 167, 4-Fluoro-piperidine-4-carboxylic acid (3-methylsulfanyl-1-phenyl-1H-indazol-6-yl)-amide]
4.12	CSc1nn(-c2ccccc2)c2cc(C(=O)C(=O)N3CCNCC3)ccc12 [Compound 168, 1-(3-Methylsulfanyl-1-phenyl-1H-indazol-6-yl)-2-piperazin-1-yl-ethane-1,2-dione]
> 10	CSc1nn(-c2ccccc2)c2cc(C(=O)c3ccc4ncn(C)c4c3)ccc12 [Compound 171, (3-Methyl-3H-benzoimidazol-5-yl)-(3-methylsulfanyl-1-phenyl-1H-indazol-6-yl)-methanone]
> 10	COc1ccc(-n2nc(SC)c3ccc(C(=O)c4ccc5ncn(C)c5c4)cc32)cc1 [Compound 173, [1-(4-Methoxy-phenyl)-3-methylsulfanyl-1H-indazol-6-yl]-(3-methyl-3H-benzoimidazol-5-yl)-methanone]
> 10	CSc1nn(-c2ccccc2)c2cc(C(=O)c3ccc4nonc4c3)ccc12 [Compound 174, Benzo[1,2,5]oxadiazol-5-yl-(3-methylsulfanyl-1-phenyl-1H-indazol-6-yl)-methanone]

SMILES	IC50 [µM]
CSc1nn(-c2ccc(N)cc2)c2cc(C3=CCNCC3)ccc12 [Compound 116, 4-[3-Methylsulfanyl-6-(1,2,3,6-tetrahydro-pyridin-4-yl)-indazol-1-yl]-phenylamine]	0.16
CSc1nn(-c2cccc(C)c2)c2cc(N3CCNCC3)ccc12 [Compound 118, 3-Methylsulfanyl-6-piperazin-1-yl-1-m-tolyl-1H-indazole]	4.12
CSc1nn(-c2ccc([N+](=O)[O-])cc2)c2cc(C3=CCNCC3)ccc12 [Compound 124, 3-Methylsulfanyl-1-(4-nitro-phenyl)-6-(1,2,3,6-tetrahydro-pyridin-4-yl)-1H-indazole]	0.49
CSc1nn(-c2ccc(F)cc2)c2cc(C3=CCNCC3)ccc12 [Compound 139, 1-(4-Fluoro-phenyl)-3-methylsulfanyl-6-(1,2,3,6-tetrahydro-pyridin-4-yl)-1H-indazole]	0.23
COc1ccc(-n2nc(SC)c3ccc(C4=CCNCC4)cc32)cc1 [Compound 140, 1-(4-Methoxy-phenyl)-3-methylsulfanyl-6-(1,2,3,6-tetrahydro-pyridin-4-yl)-1H-indazole]	0.09
CSc1nn(-c2cccc(C)c2)c2cc(C3=CCNCC3)ccc12 [Compound 147, 3-Methylsulfanyl-6-(1,2,3,6-tetrahydropyridin-4-yl)-1-(3-methylphenyl)-1H-indazole]	0.03
CSc1nn(-c2ccccc2)c2cc(NC(=O)C3(c4ccccc4)CCNCC3)ccc12 [Compound 172, 4-Phenyl-piperidine-4-carboxylic acid (3-methylsulfanyl-1-phenyl-1H-indazol-6-yl)-amide]	2.15
